Where a name gives a salt, the structure may show the parent alone. Read-outs that look alike come from different tables or passages of the source.
How the values were obtained:
HUVECs = assay: Tube formation (tubulogenesis) assay in HUVECs, 18 h; assay type: cell-based, human; conditions: Homo sapiens, HUVEC, 18 h, HUVECs; for activity at 0.1 µM: 0.10 µM; for minimal effective concentration: top concentration 100.00 µM
Summary of the method: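 HUVECs (passage 1–5) seeded on reduced-growth-factor basement membrane and exposed to compounds overnight at 37°C, 5% CO2, in 2× maintenance medium with 12.5 ng/mL VEGF; 0.5% DMSO vehicle. Calcein AM-stained tube networks imaged and analysed; vehicle-normalized readouts fit to four-parameter logistic, POD set at one SD of vehicle means.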

[1] = tested on: iCell endothelial cells (human iPSC-derived ECs); assay: Tube formation (tubulogenesis) assay in iCell endothelial cells, 18 h; assay type: cell-based; conditions: Homo sapiens, Endothelial cell, iPSC-EC tube formation, 18 hr; for activity at 0.1 µM: 0.10 µM; for minimal effective concentration: top concentration 100.00 µM
Summary of the method: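 Tube formation was measured by calcein AM imaging after overnight compound exposure (37°C, 0.5% DMSO vehicle) of human iPSC-derived ECs, 7,500/well, on reduced-growth-factor Geltrex in starvation medium. Vehicle-normalized data fitted to four-parameter logistic; POD set at one vehicle SD; without response, 100 μM taken as NOAEL.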

[2] = 0.00 µM = 100.00, read-out: huvec.mtl.18hr
[3] = 0.00 µM = 100.00, read-out: huvec.tlps.18hr
[4] = 0.00 µM = 100.00, read-out: huvec.tta.18hr
[5] = 0.00 µM = 100.00, read-out: huvec.ttl.18hr
[6] = 0.00 µM control = 100.00, read-out: endo.mtl.18hr
[7] = 0.00 µM control = 100.00, read-out: endo.tlps.18hr
[8] = 0.00 µM control = 100.00, read-out: endo.tta.18hr
[9] = 0.00 µM control = 100.00, read-out: endo.ttl.18hr

O=S(=O)(O)Oc1cc(Cl)ccc1-c1ccccc1 [2-yl PCB 3 sulfate]
activity at 0.01 µM (HUVECs; [2]): 100%
activity at 0.01 µM (HUVECs; [3]): 98.8%
activity at 0.01 µM (HUVECs; [4]): 108%
activity at 0.01 µM (HUVECs; [5]): 108%
activity at 0.1 µM (HUVECs; [2]): 99.3%
activity at 0.1 µM (HUVECs; [3]): 101%
activity at 0.1 µM (HUVECs; [4]): 147%
activity at 0.1 µM (HUVECs; [5]): 147%
activity at 1 µM (HUVECs; [2]): 97.8%
activity at 1 µM (HUVECs; [3]): 116%
activity at 1 µM (HUVECs; [4]): 132%
activity at 1 µM (HUVECs; [5]): 128%
activity at 10 µM (HUVECs; [2]): 90.4%
activity at 10 µM (HUVECs; [3]): 99.7%
activity at 10 µM (HUVECs; [4]): 90.3%
activity at 10 µM (HUVECs; [5]): 93.2%
activity at 100 µM (HUVECs; [2]): 74.5%
activity at 100 µM (HUVECs; [3]): 59.6%
activity at 100 µM (HUVECs; [4]): 61.5%
activity at 100 µM (HUVECs; [5]): 62%
minimal effective concentration (HUVECs; read-out: huvec.mtl.18hr POD): 10.7 µM
minimal effective concentration (HUVECs; read-out: huvec.tlps.18hr POD): 37.4 µM
minimal effective concentration (HUVECs; read-out: huvec.tta.18hr POD): 100 µM
minimal effective concentration (HUVECs; read-out: huvec.ttl.18hr POD): 100 µM
activity at 0.01 µM [1, 6]: 97.5%
activity at 0.01 µM [1, 7]: 97.8%
activity at 0.01 µM [1, 8]: 134%
activity at 0.01 µM [1, 9]: 124%
activity at 0.1 µM [1, 6]: 93.9%
activity at 0.1 µM [1, 7]: 117%
activity at 0.1 µM [1, 8]: 102%
activity at 0.1 µM [1, 9]: 93.2%
activity at 1 µM [1, 6]: 91.4%
activity at 1 µM [1, 7]: 118%
activity at 1 µM [1, 8]: 90.6%
activity at 1 µM [1, 9]: 83.8%
activity at 10 µM [1, 6]: 83.6%
activity at 10 µM [1, 7]: 89.9%
activity at 10 µM [1, 8]: 60.9%
activity at 10 µM [1, 9]: 58.8%
activity at 100 µM [1, 6]: 106%
activity at 100 µM [1, 7]: 86.3%
activity at 100 µM [1, 8]: 92.2%
activity at 100 µM [1, 9]: 89%
minimal effective concentration ([1]; read-out: endo.mtl.18hr POD): 100 µM
minimal effective concentration ([1]; read-out: endo.tlps.18hr POD): 100 µM
minimal effective concentration ([1]; read-out: endo.tta.18hr POD): 100 µM
minimal effective concentration ([1]; read-out: endo.ttl.18hr POD): 100 µM

Oc1cccc(-c2ccc(Cl)cc2)c1 [3'-OH PCB3]
activity at 0.01 µM (HUVECs; [2]): 96.9%
activity at 0.01 µM (HUVECs; [3]): 88.1%
activity at 0.01 µM (HUVECs; [4]): 90.6%
activity at 0.01 µM (HUVECs; [5]): 92%
activity at 0.1 µM (HUVECs; [2]): 102%
activity at 0.1 µM (HUVECs; [3]): 83.7%
activity at 0.1 µM (HUVECs; [4]): 124%
activity at 0.1 µM (HUVECs; [5]): 127%
activity at 1 µM (HUVECs; [2]): 93%
activity at 1 µM (HUVECs; [3]): 89.2%
activity at 1 µM (HUVECs; [4]): 91.7%
activity at 1 µM (HUVECs; [5]): 95.4%
activity at 10 µM (HUVECs; [2]): 70.2%
activity at 10 µM (HUVECs; [3]): 66.1%
activity at 10 µM (HUVECs; [4]): 58.6%
activity at 10 µM (HUVECs; [5]): 61.5%
activity at 100 µM (HUVECs; [2]): 72.3%
activity at 100 µM (HUVECs; [3]): 25.9%
activity at 100 µM (HUVECs; [4]): 17.3%
activity at 100 µM (HUVECs; [5]): 15.5%
minimal effective concentration (HUVECs; read-out: huvec.mtl.18hr POD): 1.14 µM
minimal effective concentration (HUVECs; read-out: huvec.tlps.18hr POD): 1.01 µM
minimal effective concentration (HUVECs; read-out: huvec.tta.18hr POD): 3.65 µM
minimal effective concentration (HUVECs; read-out: huvec.ttl.18hr POD): 3.26 µM
activity at 0.01 µM [1, 6]: 98%
activity at 0.01 µM [1, 7]: 99.3%
activity at 0.01 µM [1, 8]: 119%
activity at 0.01 µM [1, 9]: 114%
activity at 0.1 µM [1, 6]: 85.4%
activity at 0.1 µM [1, 7]: 107%
activity at 0.1 µM [1, 8]: 73%
activity at 0.1 µM [1, 9]: 72.3%
activity at 1 µM [1, 6]: 88.6%
activity at 1 µM [1, 7]: 76.7%
activity at 1 µM [1, 8]: 71.5%
activity at 1 µM [1, 9]: 69.4%
activity at 10 µM [1, 6]: 59%
activity at 10 µM [1, 7]: 33.8%
activity at 10 µM [1, 8]: 39.4%
activity at 10 µM [1, 9]: 39.8%
activity at 100 µM [1, 6]: 46%
activity at 100 µM [1, 7]: 11.7%
activity at 100 µM [1, 8]: 1.49%
activity at 100 µM [1, 9]: 2.14%
minimal effective concentration ([1]; read-out: endo.mtl.18hr POD): 0.36 µM
minimal effective concentration ([1]; read-out: endo.tlps.18hr POD): 1.03 µM
minimal effective concentration ([1]; read-out: endo.tta.18hr POD): 0.49 µM
minimal effective concentration ([1]; read-out: endo.ttl.18hr POD): 0.51 µM

— PMC7377239, “Cardiovascular Effects of Polychlorinated Biphenyls and Their Major Metabolites” (Environmental Health Perspectives, 2020)
